Test results published in patent publication US20150105252A1, “SUBSTITUTED PYRAZOLES AS HERBICIDES” (E I DU PONT DE NEMOURS AND COMPANY, priority 2013, published 2015).

Experiments:
Test in all cases: Test C postemergence
[1] = tested on: Surinam grass; format: in vivo, Brachiaria decumbens; conditions: for Surinam Grass plant response rating: 62 g ai/ha, scale 0 to 100
Description: (§1) Seeds of plant species selected from blackgrass (Alopecurus myosuroides), ryegrass, Italian (Italian ryegrass, Lolium multiflorum), wheat (winter wheat, Triticum aestivum), galium (catchweed bedstraw, Galium aparine), corn (Zea mays), crabgrass, large (large crabgrass, Digitaria sanguinalis), foxtail, giant (giant foxtail, Setaria faberii), johnsongrass (Sorghum halepense), lambsquarters (Chenopodium album), morningglory (Ipomoea coccinea), nutsedge, yellow (yellow nutsedge, Cyperus esculentus), pigweed (redroot pigweed, Amaranthus retroflexus), ragweed (common ragweed, Ambrosia elation), soybean (Glycine max), barnyardgrass (Echinochloa crus-galli), oilseed rape (Brassica napus), waterhemp (common waterhemp, Amaranthus rudis), oat, wild (wild oat, Avena fatua), kochia (Kochia scoparia), Surinam grass (Brachiaria decumbens), foxtail, green (green foxtail, Setaria viridis), goosegrass (Eleusine indica), bromegrass, downy (downy bromegrass, Bromus tectorum), nightshade (eastern black nightshade, Solanum ptycanthum), cocklebur (common cocklebur, Xanthium strumarium), cupgrass, woolly (woolly cupgrass, Eriochloa villosa), bermudagrass (Cynodon dactylon), sunflower, (common oilseed sunflower, Helianthus annuus), Russian thistle (Salsola kali), and velvetleaf (Abutilon theophrasti) were planted into a blend of loam soil and sand and treated preemergence with test chemicals formulated in a non-phytotoxic solvent mixture which included a surfactant.
(§2) At the same time, plants selected from these crop and weed species and also chickweed (common chickweed, Stellaria media), canarygrass (littleseed canarygrass, Phalaris minor), and deadnettle (henbit deadnettle, Lamium amplexicaule), were planted in pots containing Redi-Earth® planting medium (Scotts Company, 14111 Scottslawn Road, Marysville, Ohio 43041) comprising spaghnum peat moss, vermiculite, wetting agent and starter nutrients and treated with postemergence applications of test chemicals formulated in the same manner. Plants ranged in height from 2 to 18 cm (1- to 4-leaf stage) for postemergence treatments. Treated plants and controls were maintained in a greenhouse for 13 to 15 days, after which time all species were compared to controls and visually evaluated. Plant response ratings, summarized in Table C, are based on a scale of 0 to 100 where 0 is no effect and 100 is complete control. A dash (-) response means no test result.

[2] = tested on: foxtail, green; format: in vivo, Setaria viridis; conditions: for Foxtail, Green plant response rating: Postemergence, 31 g ai/ha, scale 0 to 100; for Plant response rating, Foxtail, Green: postemergence
Description: as §1, §2

[3] = tested on: cupgrass, woolly; format: in vivo, Eriochloa villosa; conditions: for Cupgrass, Woolly plant response rating: Postemergence, 31 g ai/ha, scale 0 to 100; for Plant response rating, Cupgrass, Woolly: postemergence
Description: as §1, §2

[4] = tested on: bermudagrass; format: in vivo, Cynodon dactylon; conditions: for Bermudagrass plant response rating: Postemergence, 31 g ai/ha, scale 0 to 100; for Plant response rating, Bermudagrass: postemergence
Description: as §1, §2

[5] = tested on: barley; format: in vivo, Hordeum vulgare
[6] = 125 g ai/ha, scale 0 to 100, 0 no effect, 100 complete control
[7] = 250 g ai/ha, scale 0 to 100 (0 no effect, 100 complete control)
[8] = 62 g ai/ha, scale 0 to 100, 0 no effect, 100 complete control

## CCc1cc(C(=O)NCC(F)(F)F)nn1Cc1cccc(OC(F)(F)F)c1 [Compound 20]
[1]
  Surinam Grass plant response rating: 5
[1]; [6]
  Plant response rating, Surinam Grass: 10
[1]; [7]
  Plant response rating, Surinam Grass: 10
[2]
  Foxtail, Green plant response rating: 20
[2]; [7]
  Plant response rating, Foxtail, Green: 60
[2]; [8]
  Plant response rating, Foxtail, Green: 30
[2]; [6]
  Plant response rating, Foxtail, Green: 55
[3]
  Cupgrass, Woolly plant response rating: 5
[3]; [7]
  Plant response rating, Cupgrass, Woolly: 15
[3]; [8]
  Plant response rating, Cupgrass, Woolly: 10
[3]; [6]
  Plant response rating, Cupgrass, Woolly: 15
[4]
  Bermudagrass plant response rating: 5
[4]; [7]
  Plant response rating, Bermudagrass: 45
[4]; [8]
  Plant response rating, Bermudagrass: 5
[4]; [6]
  Plant response rating, Bermudagrass: 15
[5]; [6]
  Plant response rating, Barley: 30
[5]; [7]
  Plant response rating, Barley: 30

## CCCNC(=O)c1cc(CC)n(Cc2cccc(OC(F)(F)F)c2)n1 [Compound 27]
[1]
  Surinam Grass plant response rating: 5
[1]; [6]
  Plant response rating, Surinam Grass: 10
[1]; [7]
  Plant response rating, Surinam Grass: 10
[2]
  Foxtail, Green plant response rating: 25
[2]; [7]
  Plant response rating, Foxtail, Green: 50
[2]; [8]
  Plant response rating, Foxtail, Green: 30
[2]; [6]
  Plant response rating, Foxtail, Green: 30
[3]
  Cupgrass, Woolly plant response rating: 0
[3]; [7]
  Plant response rating, Cupgrass, Woolly: 20
[3]; [8]
  Plant response rating, Cupgrass, Woolly: 5
[3]; [6]
  Plant response rating, Cupgrass, Woolly: 10
[4]
  Bermudagrass plant response rating: 0
[4]; [7]
  Plant response rating, Bermudagrass: 25
[4]; [8]
  Plant response rating, Bermudagrass: 5
[4]; [6]
  Plant response rating, Bermudagrass: 5
[5]; [6]
  Plant response rating, Barley: 20
[5]; [7]
  Plant response rating, Barley: 30

## CCc1cc(C(=O)NOC(C)C)nn1Cc1cccc(OC(F)(F)F)c1 [Compound 70]
[1]
  Surinam Grass plant response rating: 10
[1]; [6]
  Plant response rating, Surinam Grass: 20
[1]; [7]
  Plant response rating, Surinam Grass: 30
[2]; [7]
  Plant response rating, Foxtail, Green: 80
[2]; [8]
  Plant response rating, Foxtail, Green: 5
[2]; [6]
  Plant response rating, Foxtail, Green: 80
[3]
  Cupgrass, Woolly plant response rating: 0
[3]; [7]
  Plant response rating, Cupgrass, Woolly: 20
[3]; [8]
  Plant response rating, Cupgrass, Woolly: 0
[3]; [6]
  Plant response rating, Cupgrass, Woolly: 15
[4]
  Bermudagrass plant response rating: 5
[4]; [7]
  Plant response rating, Bermudagrass: 10
[4]; [8]
  Plant response rating, Bermudagrass: 5
[4]; [6]
  Plant response rating, Bermudagrass: 10
[5]; [7]
  Plant response rating, Barley: 25
